Legend:
S. pneumoniae D39V [1] = assay: fitness (endpoint OD595 vs no drug) (fraction); higher = more growth
In short: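 At 37 °C, bacteria in TSB, LB Lennox or CY were grown in 384-well plates from a starting OD595 of 0.01. OD595 was measured every 30 min for 14 h, with the first reading used as background. Fitness is the optical density at the switch to stationary phase as a fraction of the robust mean of no-drug control wells, capped at 1.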

S. aureus DSM 20231 = assay: Bliss interaction score (quartile over a dose matrix) (fitness difference); higher = more antagonism (negative = synergy)
In short: (§1)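 Fitness is OD595 at stationary-phase entry relative to the plate's robust no-drug mean, capped at 1. Single-drug fitness was inferred from combinations. The Bliss score is observed minus product-expected fitness, summarised by quartiles over technical, biological and donor/recipient replicates.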

S. aureus Newman = assay: as above
In short: as §1

S. pneumoniae D39V [2] = assay: as above
In short: as §1

B. subtilis 168 = assay: as above
In short: as §1
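For Bliss interaction score (quartile over a dose matrix) in this document: first quartile when negative (synergy) and third quartile when positive (antagonism).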

CC(=O)NC[C@H]1CN(c2ccc(N3CCOCC3)c(F)c2)C(=O)O1 [Linezolid] + O=C1CN(/N=C/c2ccc([N+](=O)[O-])o2)C(=O)N1 [Nitrofurantoin]
fitness, S. pneumoniae D39V [1]
Conditions	first compound 0.105 µg/mL	first compound 0.2 µg/mL	first compound 0.21 µg/mL	first compound 0.4 µg/mL	first compound 0.42 µg/mL	first compound 0.8 µg/mL
partner 1.285 µg/mL	–	0.79	–	0.695	–	0.291
partner 2 µg/mL	0.784	–	0.688	–	0.522	–
partner 2.57 µg/mL	–	0.791	–	0.683	–	0.259
partner 4 µg/mL	0.795	–	0.705	–	0.488	–
partner 8 µg/mL	0.618	–	0.346	–	0.151	–

S. pneumoniae D39V [1], partner 5.14 µg/mL, one replicate
Conditions	fitness
first compound 0.2 µg/mL	0.735
first compound 0.4 µg/mL	0.534
first compound 0.8 µg/mL	0.239

Conditions	Bliss interaction score
B. subtilis 168	-0.141
S. aureus DSM 20231	-0.0317
S. aureus Newman	-0.0829
S. pneumoniae D39V [2]	-0.147

CO[C@H]1/C=C/O[C@@]2(C)Oc3c(C)c(O)c4c(O)c(c(/C=N/N5CCN(C)CC5)c(O)c4c3C2=O)NC(=O)/C(C)=C\C=C\[C@H](C)[C@H](O)[C@@H](C)[C@@H](O)[C@@H](C)[C@H](OC(C)=O)[C@@H]1C [Rifampicin] + CC1=C\[C@@H](O)CC(=O)Cc2nc(co2)C(=O)N2CCC=C2C(=O)O[C@H](C(C)C)[C@H](C)/C=C/C(=O)NC\C=C\1 [Virginiamycin M1]
S. pneumoniae D39V [1], one replicate
Conditions	fitness
first compound 0.025 µg/mL, partner 0.5 µg/mL	0.876
first compound 0.025 µg/mL, partner 1 µg/mL	0.905
first compound 0.025 µg/mL, partner 2 µg/mL	0.822
first compound 0.05 µg/mL, partner 0.15 µg/mL	≥ 1
first compound 0.05 µg/mL, partner 0.3 µg/mL	0.993
first compound 0.1 µg/mL, partner 0.15 µg/mL	0.891
first compound 0.1 µg/mL, partner 0.3 µg/mL	0.884
first compound 0.2 µg/mL, partner 0.15 µg/mL	0.267
first compound 0.2 µg/mL, partner 0.3 µg/mL	0.203

S. pneumoniae D39V [1], first compound 0.2 µg/mL
Conditions	fitness
partner 0.5 µg/mL	0.194
partner 1 µg/mL	0.0581
partner 2 µg/mL	0.129

Conditions	Bliss interaction score
B. subtilis 168	-0.0938
S. aureus DSM 20231	0.0924
S. aureus Newman	-0.0218
S. pneumoniae D39V [2]	0.111

CO[C@H]1/C=C/O[C@@]2(C)Oc3c(C)c(O)c4c(O)c(c(/C=N/N5CCN(C)CC5)c(O)c4c3C2=O)NC(=O)/C(C)=C\C=C\[C@H](C)[C@H](O)[C@@H](C)[C@@H](O)[C@@H](C)[C@H](OC(C)=O)[C@@H]1C [Rifampicin] + CN(C)c1cc(NC(=O)CNC(C)(C)C)c(O)c2c1C[C@H]1C[C@H]3[C@H](N(C)C)C(O)=C(C(N)=O)C(=O)[C@@]3(O)C(O)=C1C2=O [Tigecycline]
S. pneumoniae D39V [1], first compound 0.025 µg/mL, one replicate
Conditions	fitness
partner 0.65 µg/mL	0.86
partner 1.3 µg/mL	0.808
partner 2.6 µg/mL	0.839

S. pneumoniae D39V [1], first compound 0.2 µg/mL
Conditions	fitness
partner 0.65 µg/mL	0.197
partner 1.3 µg/mL	0.159
partner 2.6 µg/mL	0.196

Conditions	Bliss interaction score
B. subtilis 168	0.0457
S. aureus DSM 20231	0.026
S. aureus Newman	-0.0189
S. pneumoniae D39V [2]	-0.0785

CO[C@H]1/C=C/O[C@@]2(C)Oc3c(C)c(O)c4c(O)c(c(/C=N/N5CCN(C)CC5)c(O)c4c3C2=O)NC(=O)/C(C)=C\C=C\[C@H](C)[C@H](O)[C@@H](C)[C@@H](O)[C@@H](C)[C@H](OC(C)=O)[C@@H]1C [Rifampicin] + CN(N=O)C(=O)N[C@@H](C=O)[C@@H](O)[C@H](O)[C@H](O)CO [Streptozotocin]
S. pneumoniae D39V [1], first compound 0.025 µg/mL, one replicate
Conditions	fitness
partner 1.2 µg/mL	0.825
partner 2.4 µg/mL	0.838
partner 4.8 µg/mL	0.786

fitness, S. pneumoniae D39V [1]
Conditions	partner 1.2 µg/mL	partner 2.4 µg/mL	partner 4.8 µg/mL
first compound 0.05 µg/mL	0.831	0.879	0.766
first compound 0.2 µg/mL	0.0914	0.108	0

Conditions	Bliss interaction score
B. subtilis 168	-0.0644
S. aureus DSM 20231	0.034
S. aureus Newman	-0.0244
S. pneumoniae D39V [2]	-0.0476

CO[C@H]1/C=C/O[C@@]2(C)Oc3c(C)c(O)c4c(O)c(c(/C=N/N5CCN(C)CC5)c(O)c4c3C2=O)NC(=O)/C(C)=C\C=C\[C@H](C)[C@H](O)[C@@H](C)[C@@H](O)[C@@H](C)[C@H](OC(C)=O)[C@@H]1C [Rifampicin] + CN[C@@H]1[C@H](O)[C@H](NC)[C@H]2O[C@@]3(O)C(=O)C[C@@H](C)O[C@H]3O[C@@H]2[C@H]1O [Spectinomycin]
fitness, S. pneumoniae D39V [1], one replicate
Conditions	partner 4 µg/mL	partner 8 µg/mL	partner 16 µg/mL
first compound 0.025 µg/mL	0.848	0.716	0.282
first compound 0.2 µg/mL	–	–	0

fitness, S. pneumoniae D39V [1]
Conditions	first compound 0.05 µg/mL	first compound 0.1 µg/mL	first compound 0.2 µg/mL
partner 4 µg/mL	0.497	0.297	0.0634
partner 8 µg/mL	–	0.202	0.069
partner 16 µg/mL	0.23	0.204	–

Conditions	Bliss interaction score
B. subtilis 168	-0.0584
S. aureus DSM 20231	-0.0309
S. aureus Newman	0.0508
S. pneumoniae D39V [2]	-0.153

CO[C@H]1/C=C/O[C@@]2(C)Oc3c(C)c(O)c4c(O)c(c(/C=N/N5CCN(C)CC5)c(O)c4c3C2=O)NC(=O)/C(C)=C\C=C\[C@H](C)[C@H](O)[C@@H](C)[C@@H](O)[C@@H](C)[C@H](OC(C)=O)[C@@H]1C [Rifampicin] + CN[C@@H]1[C@H](O[C@H]2[C@H](O[C@H]3[C@H](O)[C@@H](O)[C@H](N=C(N)N)[C@@H](O)[C@@H]3N=C(N)N)O[C@@H](C)[C@]2(O)C=O)O[C@@H](CO)[C@H](O)[C@H]1O [Streptomycin]
S. pneumoniae D39V [1], one replicate
Conditions	fitness
first compound 0.025 µg/mL, partner 2 µg/mL	0.804
first compound 0.025 µg/mL, partner 4 µg/mL	0.823
first compound 0.025 µg/mL, partner 8 µg/mL	0.725
first compound 0.05 µg/mL, partner 16 µg/mL	0.272
first compound 0.1 µg/mL, partner 16 µg/mL	0.215
first compound 0.2 µg/mL, partner 16 µg/mL	0.137

fitness, S. pneumoniae D39V [1]
Conditions	partner 2 µg/mL	partner 4 µg/mL	partner 8 µg/mL
first compound 0.1 µg/mL	–	0.292	0.304
first compound 0.2 µg/mL	0.0493	0.0964	0.185

Conditions	Bliss interaction score
B. subtilis 168	0.184
S. aureus DSM 20231	-0.0315
S. aureus Newman	-0.0179
S. pneumoniae D39V [2]	-0.121

CO[C@H]1/C=C/O[C@@]2(C)Oc3c(C)c(O)c4c(O)c(c(/C=N/N5CCN(C)CC5)c(O)c4c3C2=O)NC(=O)/C(C)=C\C=C\[C@H](C)[C@H](O)[C@@H](C)[C@@H](O)[C@@H](C)[C@H](OC(C)=O)[C@@H]1C [Rifampicin] + CN[C@H](CC(C)C)C(=O)N[C@H]1C(=O)N[C@@H](CC(N)=O)C(=O)N[C@H]2C(=O)N[C@H]3C(=O)N[C@H](C(=O)N[C@H](C(=O)O)c4cc(O)cc(O)c4-c4cc3ccc4O)[C@H](O)c3ccc(c(Cl)c3)Oc3cc2cc(c3O[C@@H]2O[C@H](CO)[C@@H](O)[C@H](O)[C@H]2O[C@H]2C[C@](C)(N)[C@H](O)[C@H](C)O2)Oc2ccc(cc2Cl)[C@H]1O [Vancomycin]
fitness, S. pneumoniae D39V [1], one replicate
Conditions	partner 0.125 µg/mL	partner 0.25 µg/mL	partner 0.5 µg/mL
first compound 0.025 µg/mL	0.903	0.823	0.267
first compound 0.2 µg/mL	–	0	0

fitness, S. pneumoniae D39V [1]
Conditions	partner 0.03125 µg/mL	partner 0.0625 µg/mL	partner 0.125 µg/mL	partner 0.25 µg/mL	partner 0.5 µg/mL
first compound 0.05 µg/mL	0.886	0.846	–	0.707	0.299
first compound 0.1 µg/mL	0.537	0.476	–	–	–
first compound 0.2 µg/mL	0.162	0.161	0.0937	–	–

Conditions	Bliss interaction score
B. subtilis 168	0.029
S. aureus DSM 20231	-0.0199
S. aureus Newman	0.0383
S. pneumoniae D39V [2]	0.135

CO[C@H]1/C=C/O[C@@]2(C)Oc3c(C)c(O)c4c(O)c(c(/C=N/N5CCN(C)CC5)c(O)c4c3C2=O)NC(=O)/C(C)=C\C=C\[C@H](C)[C@H](O)[C@@H](C)[C@@H](O)[C@@H](C)[C@H](OC(C)=O)[C@@H]1C [Rifampicin] + Cc1cc(NS(=O)(=O)c2ccc(N)cc2)no1 [Sulfamethoxazol]
S. pneumoniae D39V [1], first compound 0.025 µg/mL, one replicate
Conditions	fitness
partner 1 µg/mL	0.837
partner 2 µg/mL	0.831
partner 4 µg/mL	0.828

fitness, S. pneumoniae D39V [1]
Conditions	partner 1 µg/mL	partner 2 µg/mL	partner 4 µg/mL
first compound 0.05 µg/mL	0.933	0.93	0.853
first compound 0.2 µg/mL	0.0772	0.0834	0.104

Conditions	Bliss interaction score
B. subtilis 168	-0.052
S. aureus DSM 20231	-0.0278
S. aureus Newman	-0.0257
S. pneumoniae D39V [2]	0.0639

CO[C@H]1/C=C/O[C@@]2(C)Oc3c(C)c(O)c4c(O)c(c(/C=N/N5CCN(C)CC5)c(O)c4c3C2=O)NC(=O)/C(C)=C\C=C\[C@H](C)[C@H](O)[C@@H](C)[C@@H](O)[C@@H](C)[C@H](OC(C)=O)[C@@H]1C [Rifampicin] + Cn1nnc(-c2ccc(-c3ccc(N4C[C@H](CO)OC4=O)cc3F)cn2)n1 [Tedizolid]
fitness, S. pneumoniae D39V [1], one replicate
Conditions	partner 0.125 µg/mL	partner 0.25 µg/mL	partner 0.5 µg/mL
first compound 0.025 µg/mL	0.832	0.726	0.254
first compound 0.2 µg/mL	–	0	0

fitness, S. pneumoniae D39V [1]
Conditions	partner 0.03125 µg/mL	partner 0.0625 µg/mL	partner 0.125 µg/mL	partner 0.25 µg/mL	partner 0.5 µg/mL
first compound 0.05 µg/mL	0.98	0.97	0.907	0.591	0.21
first compound 0.1 µg/mL	0.743	0.79	–	0.343	0.181
first compound 0.2 µg/mL	0.197	0.233	0.122	–	–

Conditions	Bliss interaction score
B. subtilis 168	-0.0782
S. aureus DSM 20231	0.0203
S. aureus Newman	-0.0238
S. pneumoniae D39V [2]	0.133

Source: the supplement of paper PMC10627819
